Where two headings read alike, the source gives them in different places.
What was measured:
[1] = system: T1, ACAT (Acyl CoA-Cholesterol Acyltransferase); experiment: In-vitro determination of inhibition of ACAT in hepatic microsomes, [14C]-Palmitoyl CoA substrate; assay type: biochemical, Wistar rats; details: rat hepatic microsomes
T1 construct: other: 10^−4 M; rat hepatic microsomes; other: 3 × 10^−5 M; other: 10^−5 M; ot
Experimental: I. In-Vitro Determination of Inhibition of ACAT (Acyl CoA-Cholesterol Acyltransferase)
The in-vitro determination of the inhibition of the enzyme ACAT by the compounds of the invention is carried out in principle as described in the publication of Largis EE, Wang CH, DeVries VG and Schaffer SA (1989), “A Novel inhibitor of ACAT-catalyzed cholesterol esterification and cholesterol absorption”, J. Lipid Res. 30, 681-689, (1989), whereby hepatic microsomes are used. The radio-substrate used is [^14C]-Palmitoyl CoA. The respective parts of the description are hereby incorporated by reference and forms part of the present disclosure.
Briefly hepatic microsomes were prepared from the Wistar rats. Enzyme inhibition experiments were performed in presence of 18 μM [^14C]-Palmitoyl CoA as substrate. The vehicle used was 1% DMSO. Compounds to be tested were present at various concentrations and the incubation buffer used was 0.2 M Phosphate buffer, pH 7.4 at 25° C. After a 15 minutes preincubation period at 37° C. an incubation period of 10 minutes at 37° C. followed. Quantification of [^14C]Cholesterol ester was done by column chromatography.
The inhibition of the enzyme ACAT by the inventive substituted pyrazoline compounds was determined as described above.

[2] = biological target: ACAT (Acyl CoA-Cholesterol Acyltransferase); details: reported value for the reference compound; cited from earlier work
[3] = 3 × 10^−5 M, second table (other experiment)
[4] = 3 × 10^−6 M, second table (other experiment)
[5] = 10^−4 M, second table (other experiment)
[6] = 10^−5 M, second table (other experiment)
[7] = second table (other experiment)

| SMILES | ACAT Inhibition (%) at various concentration of example ([1]; 3 × 10^−5 M, first table) | ACAT Inhibition (%) at various concentration of example ([1]; 3 × 10^−6 M, first table) | ACAT Inhibition (%) at various concentration of example ([1]; 10^−4 M, first table) | ACAT Inhibition (%) at various concentration of example ([1]; 10^−5 M, first table) | ACAT Inhibition (%) at various concentration of example ([1]; 10^−6 M, first table) | IC50 ([1]; first table) | ACAT Inhibition (%) at various concentration of example [1, 3] | ACAT Inhibition (%) at various concentration of example [1, 4] | ACAT Inhibition (%) at various concentration of example ([1]; 3 × 10^−7 M, first table) | ACAT Inhibition (%) at various concentration of example [1, 5] | ACAT Inhibition (%) at various concentration of example [1, 6] | IC50 [1, 7] | IC50 [2] |
| --- | --- | --- | --- | --- | --- | --- | --- | --- | --- | --- | --- | --- | --- |
| CC1(c2ccc(Cl)cc2)CC(C(=O)NC2CCCCCC2)=NN1c1ccc(Cl)cc1Cl (stereo not shown) [Example 1, 5-(4-Chloro-phenyl)-1-(2,4-dichloro-phenyl)-5-methyl-4,5-dihydro-1H-pyrazole-3-carboxylic acid cycloheptylamide] | 54% | 14% | 62% | 46% | −1% | 27.5 µM |  |  |  |  |  |  |  |
| CC1(c2ccc(Cl)cc2)CC(C(=O)NN2CCCCCC2)=NN1c1ccc(Cl)cc1Cl.Cl (stereo not shown) [Example 2, 5-(4-Chloro-phenyl)-1-(2,4-dichloro-phenyl)-5-methyl-4,5-dihydro-1H-pyrazole-3-carboxylic acid azepan-1-ylamide; hydrochloride] | 91% | 32% |  | 68% | 20% | 4.93 µM | 94% | 37% | 10% | 98% | 75% | 4.39 µM |  |
| CC1(c2ccc(Cl)cc2)CC(C(=O)NN2CCCCC2)=NN1c1ccc(Cl)cc1Cl.Cl (stereo not shown) [Example 3, 5-(4-Chloro-phenyl)-1-(2,4-dichloro-phenyl)-5-methyl-4,5-dihydro-1H-pyrazole-3-carboxylic acid piperidin-1-ylamide; hydrochloride] | 79% | 30% | 92% | 56% | 10% | 7.63 µM | 85% | 34% |  | 98% | 62% | 5.96 µM |  |
| CC[C@H](C)C(=O)O[C@H]1C[C@@H](C)C=C2C=C[C@H](C)[C@H](CC[C@@H]3C[C@@H](O)CC(=O)O3)[C@H]21 [Lovastatin, reference compound] |  |  |  |  |  | 22.7 µM |  |  |  |  |  | 12.5 µM | 29 µM |

Reference: patent US20100069364A1, “SUBSTITUTED PYRAZOLINE COMPOUNDS WITH ACAT INHIBITION ACTIVITY, THEIR PREPARATION AND USE AS MEDICAMENTS” (LABORATORIOS DEL DR. ESTEVE, S.A., priority 2007, published 2010)
